Results from publication PMC8226722, “Comparison of Solution Chemical Properties and Biological Activity of Ruthenium Complexes of Selected β-Diketone, 8-Hydroxyquinoline and Pyrithione Ligands” (Pharmaceuticals, 2021).

What was measured:
[1] = system: Human herpes simplex virus-2 (HSV-2); assay: Antiviral activity in Vero cells, direct qPCR; format: cell-based
Experimental: Then Vero cells were infected with HSV-2 (at MOI 0.2) and were treated with the complexes for 24 h. After 24 h post infection, the cells were lysed and the virus yield reducing effect of the compounds was evaluated by comparing the yield to that seen on untreated Vero cells. The HSV-2 DNA concentration was measured by direct qPCR.
Human herpes simplex virus-2 (HSV-2) strain was (gift from Dr. Ilona Mucsi, University of Szeged, Szeged, Hungary) grown in Vero (ATCC) cells and the infectivity was measured by using the plaque titration method. The virus titer was expressed in plaque forming units (PFU).
The plates were incubated for at 37 °C, 5% CO2 for 24 h. The plates were evaluated with quantitative PCR.
At the end of the infection (24 h for HSV-2, 48 h for C. trachomatis) the supernatants of the cells were removed and the cells were washed with PBS twice, and finally 100 μL in sucrose-phosphate-glutamic acid buffer (SPG) was measured into the wells, and the cells were subjected to two freeze-thaw cycles. The mixed cell lysates were used as a template in the qPCR as described previously. Briefly, qPCR was performed with the 5× HOT FIREPol®EvaGreen®qPCR Supermix (Solis Solis BioDyne, Tartu, Estonia) and C. trachomatis pykF gene specific primer pair in a Bio-Rad CFX96 real time PCR system. The pykF primer sequences were the following: 5′-[…]-3′, 5′-[…]-3′. For each sample the cycle threshold (Ct) number corresponding to the cycle where the amplification curve crossed the base line was determined. For the quantitative measurement of HSV-2 growth a similar qPCR method was used as was applied for C. trachomatis. The HSV-2 gD2 gene specific primer pair (gD2-F: 5′-[…]-3′, gD2-R 5′-[…]-3′ was used with a 69 °C annealing-extension temperature.

[2] = system: HeLa 229 human cervix carcinoma cells; assay: MTT cytotoxicity in HeLa 229 cells (maximum non-toxic concentration); conditions: 48 h
Experimental: HeLa 229 cells (ATCC) and Vero cells (ATCC) were cultured in minimal essential medium (MEM) (Sigma, Steinheim, Germany) with Earle salts supplemented with 10% heat-inactivated fetal bovine serum (FBS) (Gibco; ThermoFisher Scientific, Inc., Waltham, MA, USA), 2 mM L-glutamine, 1× non-essential amino acids, 8 mM HEPES, 25 μg/mL gentamycin and 1 µg/mL fungisone. The cells were incubated for 1 h at room temperature to reduce the edge effect and then overnight at 37 °C, 5% CO2 to obtain a 90% confluent cell layer.
The density of cells was 4 × 10^4 cells/well in 100 µL of MEM with Earle salts supplemented with 10% heat-inactivated FBS, 2 mM L-glutamine, 1× MEM vitamins, 1× non-essential amino acids, 0.005% Na-pyruvate, 25 µg/mL gentamycin, 1 µg/mL fungisone). The plates were incubated for 1 h room temperature and then overnight at 37 °C, 5% CO2. Next day, when the cells reached a ~90% confluency, the medium was supplemented with the serial 2-fold dilutions of the complexes in three parallel wells for each concentration. […] After 24 h incubation for Vero cells and 48 h incubation for HeLa cells, 10 µL of the MTT (Sigma, Steinheim, Germany) labelling reagent (final concentration 0.5 mg/mL) was added to each well and the plate was incubated for 4 h at 37 °C, 5% CO2. After the incubation, 100 µL of the solubilisation solution (10% SDS in 1 M HCl) was added into each well, and the plate was allowed to stand overnight in the incubator at 37 °C, 5% CO2.

[3] = system: osteosarcoma MG63 cells; parameters: method as in PMID 25856666; conditions: cited from earlier work
[4] = system: ovarian carcinoma CH1; parameters: method as in PMID 25856666; conditions: cited from earlier work
[5] = system: Chlamydia trachomatis; assay: Antichlamydia activity in HeLa cells, direct qPCR; format: cell-based; conditions: MOI 0.2, 48 h post infection
Experimental: Then the Hela cells were infected with C. trachomatis at multiplicity of infection (MOI) 0.2, and were treated with different concentrations of the complexes for 24 h. After 48 h post infection, the cells were lysed and the chlamydial growth reducing effect of the complexes was evaluated by comparing the chlamydial genom concentration to that seen on untreated/infected HeLa cells. The C. trachomatis DNA concentration was measured by direct quantitative PCR (qPCR). The average cycle threshold (Ct) numbers were calculated and –Ct values are shown at the various complex concentrations in Figure 2 for 7 and 8 (and Figure S2 for the rest of the complexes). The maximum C. trachomatis growth corresponded to a DNA concentration of Ct ~19 value as detected by direct qPCR, as well.
The Chlamydia trachomatis strain was propagated and partially purified as described previously with some modifications. The infected cells were stained with monoclonal antichlamydia lipopolysaccharide (LPS) antibody (AbD Serotec, Oxford, UK) and fluorescein isothiocyanate-labeled anti-mouse IgG (Sigma-Aldrich) and the number of cells containing chlamydial inclusions was counted under a UV microscope, and the titer was expressed as the number of inclusion forming units (IFU)/mL. […]

[6] = Shake-flask n-octanol/water distribution coefficient; format: physicochemical; conditions: 25.0 °C, 20 mM phosphate buffer
Experimental: Chloride ion concentrations of 4, 24 and 100 mM were chosen according to the chloride content of the nucleus, cytosol and blood serum, respectively. […] Then parallel artificial membrane permeability assay (PAMPA) was used to estimate the ability of the complexes to penetrate membranes by passive diffusion and the effective passive permeability coefficients (Peff) obtained for complexes 1–3 are shown in Table 4 (in case of 4, there are no data due to formation of precipitate).
Distribution coefficients at physiological pH (D7.4) of the complexes were determined by the traditional shake-flask method in n-octanol/buffered aqueous solution at pH 7.40 (20 mM phosphate buffer) at various chloride concentrations and at 25.0 ± 0.2 °C using UV-vis detection as described in our former works [37, 38, 42]. PAMPA was applied for the complexes with a Gentest pre-coated PAMPA Plate System (Corning, Corning, NY, USA) [56]. Briefly, a 96-well filter plate was used as the permeation acceptor and the 96-well bottom plate was used as the permeation donor. For simplicity, PBS was used both as donor and acceptor buffer throughout this study. […] Peff values were calculated according to the equation reported by Yu et al. [57].

[7] = system: array of cancer cell lines including cisplatin- and adriamycin-resistant strains; parameters: method as in PMID 34065335; conditions: cited from earlier work
[8] = system: hormone dependent MCF-7 breast cancer cell line; parameters: method as in PMID 27357845, PMID 31461189, PMID 24189185; conditions: read-out: half maximal effective concentration, MCF-7; cited from earlier work

Row | SMILES | maximum non-toxic concentration, HeLa 229 [2] | IC50 [3] | IC50 [4] | chlamydial growth difference between treated and untreated cells [5] | logD7.4 ([6]; pH 7.4, c(KCl) 4 mM) | logD7.4 ([6]; pH 7.4, c(KCl) 24 mM) | logD7.4 ([6]; pH 7.4, c(KCl) 100 mM) | also measured
1 | Cc1ccc(C(C)C)cc1.O=C(C=C([O-])C(F)(F)F)c1ccc(Cl)cc1.[Cl-].[Ru+2] [complex 7] | 50 µM | 64 µM | 17 µM | ca. 101 fold | – | – | – | HSV-2 growth difference ([1]; HSV-2 MOI 0.2, 24 h): ca. 237 fold; qPCR cycles difference (dCT) ([1]; HSV-2 MOI 0.2, 24 h): ~ 7.89 qPCR cycles; IC50 ([1]; MOI 0.2, 24 h, qPCR, read-out: IC50 HSV-2 growth): ~25 µM; IC90 ([1]; MOI 0.2, 24 h, qPCR, read-out: IC90 HSV-2 growth): 50 to 100 µM
2 | Cc1ccc(C(C)C)cc1.[Cl-].[O-]n1ccc2ccccc2c1=S.[Ru+2] [complex 3] | – | – | – | – | +0.92 ± 0.06 | +1.22 ± 0.04 | +1.37 ± 0.06 | –
3 | C1N2CN3CN1CP(C2)C3.Cc1ccc(C(C)C)cc1.F[P-](F)(F)(F)(F)F.[O-]n1ccc2ccccc2c1=S.[Ru+2] [complex 4] | – | – | – | – | – | – | – | concentration up to which inactive, cancer cell line panel [7]: > 50 µM
4 | Cc1ccc(C(C)C)cc1.[Cl-].[O-]n1ccccc1=S.[Ru+2] [complex 1] | – | – | – | – | −0.43 ± 0.09 | −0.10 ± 0.05 | +0.31 ± 0.03 | EC50 [8]: 3.8 µM
5 | C1N2CN3CN1CP(C2)C3.Cc1ccc(C(C)C)cc1.F[P-](F)(F)(F)(F)F.O=C(C=C([O-])C(F)(F)F)c1ccc(Cl)cc1.[Ru+2] [complex 8] | 50 µM | 41 µM | 8 µM | ca. 155 fold | – | – | – | –
